{"source": "patent US9999603B2", "about": "“Compositions and methods including leelamine and arachidonyl trifluoromethyl ketone relating to treatment of cancer” (The Penn State Research Foundation, priority 2013, dated 2018)", "assay_type_in_all_cases": "cell-based, human", "key": {"UACC 903 melanoma cells": {"system": "UACC 903 melanoma cells", "test": "MTS cell viability assay, UACC 903 melanoma cells", "conditions": "free drug in DMSO, 24 hours treatment, read-out: half-maximal inhibitory concentration (IC50), cell viability", "protocol": "(§1) Human fibroblast FF2441 cells and metastatic melanoma cell lines UACC 903 and 1205 Lu were maintained in DMEM (Invitrogen), supplemented with 10% FBS (Hyclone). Cell lines were maintained in a 37° C. humidified 5% CO2 atmosphere incubator and periodically monitored for phenotypic and genotypic characteristics, and for tumorigenic potential.\n(§2) Viability of fibroblast and melanoma cells (UACC 903 and 1205 Lu) following treatment with ATK, leelamine, nanolipoATK, and nanolipoATK-999 was measured by MTS assay (Promega, Madison, Wis.). Briefly, 5×10^3 melanoma or fibroblast (FF2441) cells were plated per well in 100 μL of media and grown in 96-well plates for 48 hours. Cells were then treated with ATK alone, leelamine alone, nanolipoATK, nanolipolee, or nanoleelATK-999 for 24 hours before measuring cell viability.\n(§3) IC50 values were calculated using Prism 4.0 GraphPad Software. Calculsyn software was used to evaluate synergy.\n(§4) The melanoma cell lines UACC 903 and 1205 Lu, and normal human fibroblast cells FF2441, were treated with 1 μM, 1.5 μM, 2 μM, 2.5 μM, 3 μM, 3.5 μM, 4 μM, 4.5 μM, or 5 μM leelamine in DMSO. […] IC50 values were calculated using GraphPad Prism software.\n(§5) The melanoma cell lines UACC 903 and 1205 Lu were treated with 15 μM, 20 μM, 25 μM, 30 μM, 35 μM, 40 μM, 45 μM, 50 μM, or 55 μM ATK in DMSO. […] IC50 values were calculated using GraphPad Prism software."}, "1205 Lu melanoma cells": {"system": "1205 Lu melanoma cells", "test": "MTS cell viability assay, 1205 Lu melanoma cells", "conditions": "free drug in DMSO, 24 hours treatment, read-out: half-maximal inhibitory concentration (IC50), cell viability", "protocol": "as §1, §2, §3, §4, §5"}, "[1]": {"system": "fibroblast cell line FF2441", "test": "MTS cell viability assay, normal fibroblasts FF2441", "conditions": "1-5 μM leelamine in DMSO, 24 hours", "protocol": "as §1, §2\nThe melanoma cell lines UACC 903 and 1205 Lu, and normal human fibroblast cells FF2441, were treated with 1 μM, 1.5 μM, 2 μM, 2.5 μM, 3 μM, 3.5 μM, 4 μM, 4.5 μM, or 5 μM leelamine in DMSO. Cells were maintained in DMEM supplemented with 10% FBS and L-glutamine. After 24 hours of treatment, an MTS assay was performed to determine the fractional cell viability relative to the DMSO control. IC50 values were calculated using GraphPad Prism software."}}, "data": [{"compound": "CC(C)c1ccc2c(c1)CC[C@H]1[C@](C)(CN)CCC[C@]21C", "note": "[leelamine, (1R,4aS,10aR)-1,2,3,4,4a,9,10,10a-octahydro-1-,4a-dimethyl-7-(1-methylethyl)-1-phenanthrenemethanamine]", "values": [{"measurement": "IC50", "setting": "UACC 903 melanoma cells", "result": 2.8, "unit": "µM"}, {"measurement": "IC50", "setting": "1205 Lu melanoma cells", "result": 3.8, "unit": "µM"}, {"measurement": "killing of normal fibroblast cells", "setting": "[1]", "result": "did not kill"}]}]}
